Experimental data: patent US5712139A, “Pyranose oxidase, pyranose oxidase gene, novel recombinant DNA and process for producing pyranose oxidase” (Kikkoman Corporation, priority 1994, dated 1998)
Like-named read-outs stand apart in the source and are kept apart here.

Target: T1, pyranose oxidase (Trametes versicolor, UniProt P79076)
T1 construct: purified, about 290 kDa by gel filtration; mature N-terminus […] in fungal enzyme; pPRME18 is the alternative N-terminally shortened construct
Experiment: Substrate specificity of pyranose oxidase (hydrogen peroxide / 4-aminoantipyrine-phenol-peroxidase colour reaction)
Assay type: biochemical, Coriolus versicolor
Details: for substrate specificity in words: summary of Table 1
Procedure: 3.0 ml of an enzyme-containing solution consisting of 1.0 ml of 0.1M Tris-HC1 buffer, pH 7.0, 0.2 ml of a color-producing solution (prepared by adding 2000 U peroxidase to 100 ml of 0.1 M Tris-HCl buffer, pH 7.0 containing 10 mM 4-aminoantipyrine and 10 mM phenol), 0.1 ml of 1M glucose, 0.1 ml pyranose oxidase solution and 1.6 ml water was allowed to react at 37° C., and the increase in absorbance at 500 nm was determined with U2000 double beam spectrophotometer (manufactured by Hitachi, Ltd.).
One unit of enzyme activity is defined as the amount of enzyme which causes formation of 1 μmol of hydrogen peroxide per minute at 37° C., pH 7.0. The calculation of […] was carried out using the following equation assuming that the molecular extinction coefficient of the quinoimine pigment formed under the above conditions is 5.3 x 10^3 : Enzyme activity: (ΔA500 /5.3)×(3.0/0.1)×dilution degree of enzyme.
For examination of the substrate specificity of the present enzyme, each of sugar solutions (0.1 M) shown in Table 1 was used in place of glucose in the method described in (1) above. 2.5 units of pyranose oxidase were added to the reaction solution. The activity for each substrate is shown in relative activity that is expressed relative to that (100%) for the substrate glucose.

[1] = substrate 3.3 mM, relative to glucose = 100%, 2.5 units of pyranose oxidase, 37° C., pH 7.0, read-out: relative activity (%)
[2] = substrate 3.3 mM, relative to glucose = 100%, 2.5 units of pyranose oxidase, 37° C., pH 7.0

OC[C@H]1OC[C@H](O)[C@@H](O)[C@@H]1O [1,5-anhydro-D-glucitol]
activity at 3300 µM [1]: 14.2%
substrate specificity in words: acts on

OC[C@H]1OC(O)C[C@@H](O)[C@@H]1O (stereo partly drawn) [2-deoxy-D-glycose]
activity at 3300 µM [1]: 1.6%

O=C1O[C@H](CO)[C@@H](O)[C@H](O)[C@H]1O [D-gluconic acidδ lactone]
activity at 3300 µM [1]: 0.4%

OC[C@@H](O)[C@@H](O)[C@H](O)[C@@H](O)CO [D-sorbitol]
activity at 3300 µM [1]: 0%

OC1OC[C@@H](O)[C@H](O)[C@H]1O (stereo partly drawn) [D-xylose]
activity at 3300 µM [1]: 6.5%
substrate specificity in words: acts on

C[C@@H]1OC(O)[C@H](O)[C@H](O)[C@H]1O (stereo partly drawn) [L-rhamnose]
activity at 3300 µM [1]: 0.1%

O=C(CO)[C@@H](O)[C@H](O)[C@@H](O)CO [L-sorbose]
activity at 3300 µM (pH 7, read-out: relative activity (%)): 9%

CC(=O)N[C@H]1C(O)O[C@H](CO)[C@@H](O)[C@@H]1O (stereo partly drawn) [N-acetyl-D-glucosamine]
activity at 3300 µM [1]: 0%

O=C(O)[C@H](O)[C@@H](O)[C@H](O)[C@H](O)CO [gluconic acid]
relative activity (%) [2]: 0.4%

OC[C@H]1O[C@H](O[C@H]2[C@H](O)[C@@H](O)[C@H](O)O[C@@H]2CO)[C@H](O)[C@@H](O)[C@@H]1O [maltose]
relative activity (%) [2]: 1.1%

OC[C@H]1O[C@H](OC[C@H]2O[C@H](O[C@]3(CO)O[C@H](CO)[C@@H](O)[C@@H]3O)[C@H](O)[C@@H](O)[C@@H]2O)[C@H](O)[C@@H](O)[C@H]1O [raffinose]
activity at 3300 µM [1]: 0%

OC[C@H]1O[C@@](CO)(O[C@H]2O[C@H](CO)[C@@H](O)[C@H](O)[C@H]2O)[C@@H](O)[C@@H]1O [sucrose]
activity at 3300 µM [1]: 0%

OC[C@H]1O[C@H](O[C@H]2O[C@H](CO)[C@@H](O)[C@H](O)[C@H]2O)[C@H](O)[C@@H](O)[C@@H]1O [trehalose]
relative activity (%) [2]: 0.1%

OC[C@@H](O)[C@H](O)[C@@H](O)CO [xylitol]
activity at 3300 µM [1]: 0%

galactose
relative activity (%) (pH 7): 3.2%
substrate specificity in words: acts on

mannose
relative activity (%) (pH 7): 0.2%
